# Experimental data reported in patent publication US20120195837A1, “TIN(II)-2-HYDROXYCARBOXYLATES” (HONEYWELL INTERNATIONAL INC., priority 2011, published 2012).
# How the values were obtained:
# [1] = Oral care application of formulated dentifrice or oral wash; format: in vivo; details: formulated as oral dentifrice or oral wash
# Text: A sample of tin(II) L-lactate (Example 2) is formulated as an oral dentifrice or oral wash, using additives and methods as known in the art.
# [2] = Physical properties of the solid (hygroscopicity, flow); format: physicochemical; details: versus stannous chloride dihydrate
# Text: Thus, tin(II) lactate is observed to be a non-hygroscopic, and therefore an easily handlable free-flowing powder. In addition, tin(II) lactate is observed to be non-corrosive.
# In addition, tin(II) lactate is observed to be non-corrosive toward standard industrial equipment.
Compound,retention of Sn(II) ion on oral surfaces ([1]; applied for about 5 to about 10 minutes),plaque formation and/or dental caries ([1]; compared with a control group which lacks the Sn(II) application),hygroscopicity / powder behaviour [2]
"C[C@H](O)C(=O)[O-].C[C@H](O)C(=O)[O-].[Sn+2] [tin(II) L-lactate, Tin(II) L-lactate]",successfully results in retention of Sn(II) ion on oral surfaces,reduces plaque formation and/or dental caries,–
"CC(O)C(=O)[O-].CC(O)C(=O)[O-].[Sn+2] (stereo not drawn) [tin(II) lactate, Tin(II) Lactate]",–,–,"non-hygroscopic, free-flowing powder"
